Experimental data taken from US20110111396A1, “BIOMARKERS FOR MONITORING THE TREATMENT BY QUINAZOLINONE COMPOUNDS” (priority 2007, published 2011).

Experiments:
Assay type in all cases: cell-based
SPARC mRNA = SPARC mRNA level in NHL cells by real-time RT-PCR; details: sensitive NHL cells; 24 hours of incubation; 10 μM; FIG. 2
Description: The effect of the administration of 3-(2,5-dimethyl-4-oxo-4H-quinazolin-3-yl)-piperidine-2,6-dione in various NHL cells was measured after 24 hours of incubation, using real-time RT-PCR (FIG. 2).
The following exemplary procedures can be used. Upon purification of total RNA, real-time PCR is performed with 100 ng of total RNA, using an Applied Biosystems 7500 instrument (Applied Biosystems, Foster City, Calif.) using TaqMan Sequence Detection chemistry which uses a fluorogenic probe (FAM) to enable the detection of a specific PCR product as it accumulates during PCR. Samples are prepared in triplicate in 50 μl reaction volumes. […]
TaqMan® Gene Expression Assays are pre-formulated gene expression assays for rapid, reliable detection and quantification of human, mouse and rat mRNA transcripts. […] Data is analyzed using 7500 Real-Time PCR System Sequence Detection software v1.3 using the comparative CT relative quantification calculation method. The output is expressed as a fold-change of expression levels. The threshold level is selected to be automatically determined by the software and is set to be above the baseline but sufficiently low to be within the exponential growth region of an amplification curve. The cycle number at which the fluorescence signal associated with a particular amplicon accumulation crosses the threshold is referred to as the CT.

[1] = test system: NHL cell lines (Namalwa, Rec-1, Jeko-1, Granta-519, JVM-2, DB); test: NHL cell proliferation by 3H-thymidine incorporation assay
Description: As detailed below, the effect of the administration of a quinazolinone compound on several types of NHL cells was determined after 3 days using 3H-thymidine incorporation, microbead array technology and real time PCR.
To better understand how the effectiveness of quinazolinone compound administration varies among different cancer cell types, the quinazolinone compound 3-(2,5-dimethyl-4-oxo-4H-quinazolin-3-yl)-piperidine-2,6-dione was tested in vitro for its anti-proliferative effect in several NHL cell lines after 3 days of treatment.
(§1) NHL cell proliferation was assessed by 3H-thymidine incorporation assay. Briefly, cells were cultured in 96 well cell culture plates in complete RPMI-1640 medium in the presence and absence of drugs. Following incubation at 37° C. for 3 days, 1μCi 3H-thymidine was added to each well for the last 5 hours of incubation. The 3H incorporation of each well was then measured. The six tested cell lines were Namalwa, Rec-1, Jeko-1, Granta-519, JVM-2, and DB.

DB cell line = test: NHL cell proliferation by 3H-thymidine incorporation assay, DB cell line; details: DB cells with t(14;18)
Description: as §1
Thus t(14;18) may be a negative prognostic factor in predicting clinical response to 3-(2,5-dimethyl-4-oxo-4H-quinazolin-3-yl)-piperidine-2,6-dione. Thus, SPARC gene expression can be used as a biomarker of NHL or MCL tumor response to quinazolinone compounds such as 3-(2,5-dimethyl-4-oxo-4H-quinazolin-3-yl)-piperidine-2,6-dione.

Row | Compound | expression of SPARC mRNA (SPARC mRNA) | anti-proliferative activity against NHL cells ([1]; 3 days of treatment, 0.01, 0.1, 1, 10 and 100 μM, FIG. 1) | dose dependence of the anti-proliferative effect ([1]; ranges tested 0, 0.01, 0.1, 1, 10 and 100 μM, especially in MCL cell lines) | response of DB cell line (rate of cell proliferation) (DB cell line) | order of sensitivity of the various NHL cell lines [1]
1 | Cc1cccc2nc(C)n(C3CCC(=O)NC3=O)c(=O)c12 (centres unmarked) [3-(2,5-dimethyl-4-oxo-4H-quinazolin-3-yl)-piperidine-2,6-dione] | increased the expression of SPARC mRNA | demonstrated anti-proliferative activity | dose dependent | increased rate of cell proliferation | 
2 | Nc1cccc2c1CN(C1CCC(=O)NC1=O)C2=O (centres unmarked) [1-oxo-2-(2,6-dioxopiperidin-3-yl)-4-aminoisoindoline, reference compound] |  |  |  |  | Namalwa (Burkitt's lymphoma)>Jeko-1>Rec-1>JVM-2>Granta-519 (all Mantle Cell Lymphomas, MCL)>DB
